Consider 37 compounds from the SangsterLogP compilation.

The logP is the decadic logarithm of the partition coefficient of the neutral form, usually between octanol and water. Usually logD stands for lipophilicity at a set pH, counting ionised and neutral species.

Assay in series [1]: not given
The source holds these as a separate data set.

Assay in series [2]: not given
This is another data set of the same source.

Assay in series [3]: not given
The source holds these as a separate data set.

Series [4] can be described thus: method code SF-HPLC, from DOI: 10.1211/0022357001774101, PMID: 10813545.
The nature of series [5]: method code SF-AS, from DOI: 10.1021/ja00198a050.
The nature of series [6]: method code SF-AS, from DOI: 10.1248/cpb.25.1350, PMID: 890858. The conditions noted are these: pH 6.5.
Series [7] can be described thus: method code SF-HPLC, from PMID: 3219139. The conditions noted are these: pH 9.0.
A short description of series [8]: method code SF-HPLC, from Huang, H.; YU, D.; Wang, C.; Shi, S.; Shi, J. (2014). Determination of apparent oil/water partition coefficient of spinosin. Yaowu fenxi zazhi, 34(3)497-499. To be noted: pH 7.4.
Series [9] is described as follows: method code SF-GLC, from DOI: 10.1021/je990149u.
Assay in series [10]: not given
The source holds these as a separate data set.

Assay in series [11]: not given
This is another data set of the same source.

Series [12] in a line: method code SF-HPLC, from DOI: 10.1023/a:1016359301852, PMID: 24271710.
Series [13] in a line: method code SF-HPLC, from Xiong, Ð. (2009). Apparent partiton coefficient of hawthorn leaf flavonoids in phospholipids complex. Chinese Traditional Patent Medicine, 31(7)1075-1078.
Series [14] can be described thus: method code SF-RC, from DOI: 10.1016/j.nucmedbio.2014.03.016, PMID: 24776092. The conditions noted are these: pH 7.4.
Series [15] is described as follows: method code SF, from DOI: 10.1016/j.bmcl.2013.12.011, PMID: 24342238.
Assay in series [16]: not given
The source holds these as a separate data set.

Assay in series [17]: not given
The source holds these as a separate data set.

The nature of series [18]: method code SF-RC, from PMID: 9639294. The conditions noted are these: pH 7.5.
A short description of series [19]: method code SF-HPLC, from DOI: 10.1016/j.ijpharm.2014.07.033, PMID: 25079434. To be noted: pH 7.4.
A short description of series [20]: method code SF-AS, from DOI: 10.1562/0031-8655(2002)076<0127:dlbcop>2.0.co;2, PMID: 12194207. To be noted: pH 7.3.
Assay in series [21]: not given
This is another data set of the same source.

A short description of series [22]: method code SF-AS, from PMID: 7170648. The conditions noted are these: pH 7.4.
Series [23] is described as follows: method code SF-AS, from PMID: 4762845. The conditions noted are these: pH 1.0.
Assay in series [24]: not given
This is another data set of the same source.

Series [25] is described as follows: method code SF-HPLC, from PMID: 8932441. To be noted: pH 7.4.
Assay in series [26]: not given
This is another data set of the same source.

Assay in series [27]: not given
This is another data set of the same source.

Assay in series [28]: not given
This is another data set of the same source.

The nature of series [29]: method code SF-HPLC, from DOI: 10.1016/0378-5173(91)90409-h. The conditions noted are these: pH 7.4.
The nature of series [30]: method code SF-RC, from DOI: 10.1016/0378-5173(86)90124-9.
Series [31] in a line: method code SF, from Huang, J.; Leng, X. (1993). Interaction of rat hepatocyte and cytochrome P 450 with pyrethroids in vitro. Dong Wu Xue Bao, 39(4)418-423.
Assay in series [32]: not given
This is another data set of the same source.

Assay in series [33]: not given
This is another data set of the same source.

Series [34] can be described thus: method code SF, from DOI: 10.1016/0378-5173(85)90077-8.
Series [35] in a line: method code SF-EIA, from DOI: 10.1016/s0022-2275(20)42614-8, PMID: 2280184. The conditions noted are these: pH 1.0.
Series [36] is described as follows: method code SF-RC, from DOI: 10.1016/s0022-2275(20)42614-8, PMID: 2280184. To be noted: pH 1.0.

The compound `COc1cccc2c1C(=O)c1c(O)c3c(c(O)c1C2=O)C[C@@](O)(C(=O)CO)C[C@@H]3O[C@H]1C[C@H](N)[C@H](I)[C@H](C)O1` came in with a lipophilicity (logP) of 1.53.
Take `CCCCCCCCCCCCC(Br)C(=O)OCC1OC(n2cc(C)c(=O)[nH]c2=O)CC1N=[N+]=[N-]` (configuration not stated): in series [1], the logP was 8.14.
As for `C[C@]12CC[C@H](O)C[C@H]1CC[C@@H]1[C@@H]2CC[C@]2(C)[C@@H](c3ccc(=O)oc3)CC[C@]12O`, in series [2], the lipophilicity (logP) is 3.34.
Compound `COc1ccc(CCN(C)CCCC(C#N)(c2cc(OC)c(OC)c(OC)c2)C(C)C)cc1OC` (configuration not stated) returned a logP in series [3] of 3.71.
As for `C[C@]12CC[C@H]3[C@@H](CCC4=CC(=O)CC[C@@]43C)[C@@H]1CC[C@@H]2OC(=O)CCC1CCCC1`, the logP in series [4] is 4.89.
`CC(C)(C)c1ccc2c(c1)OCCOCCOCCOCCOCCOCCOCCOCCO2` showed a logP in series [5] of 1.89.
As for `CCC(=O)OCc1c(CSSCc2cnc(C)c(OC(=O)CC)c2COC(=O)CC)cnc(C)c1OC(=O)CC`, the log distribution coefficient (logD) in [6] was found to be 2.68.
Consider `COC(=O)C1=C(C)NC(C)=C(C(=O)O[C@@H]2CCCN(Cc3ccccc3)C2)[C@@H]1c1cccc([N+](=O)[O-])c1` (relative stereo), for which the pH-dependent lipophilicity (logD) in [7] amounted to 3.47.
In the case of `COc1cc2oc(-c3ccc(O)cc3)cc(=O)c2c(O)c1[C@@H]1O[C@H](CO)[C@@H](O)[C@H](O)[C@H]1O[C@@H]1O[C@H](CO)[C@@H](O)[C@H](O)[C@H]1O`, the pH-dependent lipophilicity (logD) in series [8] came out at 0.56.
Compound `CCCCCCCCCCOC(=O)c1ccccc1C(=O)OCCCCCCCCCC` showed a logP in series [9] of 9.05.
`N#CC(CCN1CCC(C(N)=O)(N2CCCCC2)CC1)(c1ccccc1)c1ccccc1` came in with a logP in [10] of 3.91.
For the compound `CCCN(CCCCN1C(=O)CC2(CCCC2)CC1=O)C1COc2cccc(OC)c2C1` (configuration not stated), the lipophilicity (logP) in series [11] is 4.8.
Compound `C#CC1(OC(=O)c2ccn(C)c2)CCC2C3CCC4=CC(=O)CCC4C3CCC21C` (configuration not stated) displayed a logP in series [12] of 4.44.
`C[C@@H]1O[C@@H](OC[C@H]2O[C@@H](Oc3c(-c4ccc(O)c(O)c4)oc4cc(O)cc(O)c4c3=O)[C@H](O)[C@@H](O)[C@@H]2O)[C@H](O)[C@H](O)[C@H]1O`: the logP in series [13] is -0.09.
With `C[C@H](CCC(=O)NCc1cn(CCF)nn1)[C@H]1CC[C@H]2[C@@H]3[C@H](O)C[C@@H]4C[C@H](O)CC[C@]4(C)[C@H]3CC[C@]12C`, the log distribution coefficient (logD) in series [14] came out at 1.61.
`CN(C)Cc1cc(C=CC(=O)C=C(O)C=Cc2ccc(O)c(N(C)C)c2)ccc1O` yielded a logP in series [15] of 3.48.
Take `CCCN(CCC)C(=O)Cc1c(-c2ccc(OC(=O)NCCc3ccc(O)c(O)c3)cc2)nc2ccc(Cl)cn12`: the log partition coefficient (logP) in series [16] came out at 4.3.
In the case of `O=C(NNCc1ccncc1)C1CCCN1C(=O)C(Cc1ccc(Cl)c(Cl)c1)NS(=O)(=O)Cc1ccccc1` (configuration not stated), the logP in series [17] was 2.57.
As to `CCOC(=O)C1=C(COCCOCCNC(=O)C(C)(C)C)NC(C)=C(C(=O)OC)C1c1cccc(Cl)c1Cl` (configuration not stated), in series [18], the logD is 2.12.
For `CNC(=O)c1cccc2c(Nc3ccc(NS(C)(=O)=O)cc3OC)c3cccc(C)c3nc12`, in series [19], the logD was 3.26.
Consider `COC(=O)CCC1=C(C)c2cc3cc(C)c(cc4cc(C)c(cc5nc(cc1n2)C(CCC(=O)OC)=C5C)[nH]4)[nH]3`, for which, in series [20], the pH-dependent lipophilicity (logD) is 3.95.
Compound `CC(=O)N(O)CCCCCNC(=O)CCC(=O)N(O)CCCCCNC(=O)CCC(=O)N(O)CCCCCN` came in with a lipophilicity (logP) in [21] of -1.52.
Regarding `CCN(CC)C(=O)N1CCN(Cc2cc(Nc3ccnc4cc(Cl)ccc34)ccc2O)CC1`, in series [22], the logD came to 3.95.
On to `O=C(CCOCCOCCOCCOCCC(=O)Nc1c(I)cc(I)c(C(=O)O)c1I)Nc1c(I)cc(I)c(C(=O)O)c1I`, for which, in series [23], the logD was determined as 1.42.
For the compound `CC(C)C(NC(=O)CN1C(=O)C(NC(=O)NCc2cc[n+]([O-])cc2)CC=C1c1ccccc1)C(=O)C(F)(F)F` (configuration not stated), in series [24], the logP was determined as 1.13.
In series [25], `CCCCOC(=O)NS(=O)(=O)c1ccccc1-c1ccc(Cn2c(CCC)nc(CC)c2C(C)=O)c(F)c1` gave a log distribution coefficient (logD) of 1.72.
Take `CC1(C)CC[C@]2(C(=O)O)CC[C@]3(C)C(=CC[C@@H]4[C@@]5(C)CC[C@H](O)C(C)(C)[C@@H]5CC[C@]43C)[C@@H]2C1`: the lipophilicity (logP) in series [26] was 3.63.
`COC(=O)CC(O)CC(O)C=Cn1c(C(C)C)nc(-c2ccncc2)c1-c1ccc(F)cc1` (configuration not stated): in [27], the logP was found to be 0.9.
For the compound `CCCCC(CC)COC(=O)c1ccccc1C(=O)OCC(CC)CCCC` (configuration not stated), in series [28], the logP came to 7.3.
As to `NC(=O)[C@@H]1CCCN1C(=O)[C@H](Cc1cn(C2OC(=O)c3ccccc32)cn1)NC(=O)[C@@H]1CCC(=O)N1` (some centres not stated), the logD in series [29] is -1.25.
`CCCCC[C@H](O)/C=C/[C@@H]1[C@@H](C/C=C\CCCC(=O)OCc2ccccc2)[C@@H](O)C[C@H]1O` registered a log partition coefficient (logP) in series [30] of 4.11.
As to `CC(C)C(C(=O)OC(C#N)c1cccc(Oc2ccccc2)c1)c1ccc(OC(F)F)cc1` (configuration not stated), the lipophilicity (logP) in series [31] was determined as 5.55.
In turn, `c1cncc(-c2cnn3cc(-c4ccc(OCCN5CCCCC5)cc4)cnc23)c1` gave a logP in [32] of 3.4.
As to `COc1ccc(C=Cc2ccc(C=Cc3ccc(OC)c(C(F)(F)F)c3)c(O)c2)cc1C(F)(F)F`, the log partition coefficient (logP) in series [33] was 7.17.
In series [34], `CCCCCCCC(=O)OCC(=O)[C@@]1(O)CC[C@H]2[C@@H]3CCC4=CC(=O)CC[C@]4(C)[C@H]3C(=O)C[C@@]21C` gave a lipophilicity (logP) of 4.22.
`C[C@H](CCC(=O)O)[C@H]1CC[C@H]2[C@@H]3C[C@H](O)[C@@H]4C[C@H](O)CC[C@]4(C)[C@H]3CC[C@]12C` had a logD in series [35] of 3.08.
`CC(CCC(=O)NCC(=O)O)C1CCC2C3CCC4CC(O)CCC4(C)C3CC(O)C12C` (stereo in doubt): the logD in series [36] was 2.25.
